Source: patent US8623860B2, “Azetidine derivatives, pharmaceutical compositions and uses thereof” (Boehringer Ingelheim International GmbH, priority 2011, dated 2014)

Each molecule was assayed against human ACC2 (Homo sapiens (Human), UniProt O00763) (assay: ACC2 assay, spectrophotometric 384 well assay (NADH-linked, coupled lactate dehydrogenase/pyruvate kinase reaction)). Conditions: hACC2 construct lacking the 128 N-terminal amino acids; 25° C., 340 nm, 15 minutes.
Assay type: biochemical
Method: Spectrophotometric 384 Well Assay
Malonyl CoA formation by acetyl CoA carboxylases is stoichometrically linked to the consumption of ATP. ACC2 activity is measured in a NADH-linked kinetic method measuring ADP generated during the ACC reaction using a coupled lactate dehydrogenase/pyruvate kinase reaction.
For biological testing, a human ACC2 construct which lacks the 128 amino acids at the N-terminus for increased solubility (nt 385-6966 in Genbank entry AJ575592) is cloned. The protein is then expressed in insect cells using a baculoviral expression system. Protein purification is performed by anion exchange.
All compounds are dissolved in dimethyl sulfoxide (DMSO) to a concentration of 10 mM.
Assay reactions are then carried out in 384-well plates, with hACC2 in an appropriate dilution and at final assay concentrations (f.c.) of 100 mM Tris (pH 7.5), 10 mM trisodium citrate, 25 mM KHCC3, 10 mM MgCl2, 0.5 mg/ml BSA, 3.75 mM reduced L-glutathione, 15 U/ml lactate dehydrogenase, 0.5 mM phosphoenolpyruvate, 15 U/ml pyruvate kinase, compounds at different concentrations at final DMSO concentrations of 1%.
The enzymatic reaction is then started by addition of a mixture of NADH, acetyl Coenzyme A (both 200 μM f.c.) and ATP (500 uM f.c.). The decrease of the optical density (slope S) is then determined at 25° C. at a wavelength of 340 nm over 15 minutes in a spectrophotometric reader.
Each assay microtiter plate contains wells with vehicle instead of compound as controls for the non-inhibited enzyme (100% CTL; ‘HIGH’) and wells without acetyl-CoA as controls for non-specific NADH degradation (0% CTL; ‘LOW’).
The slope S is used for calculation of % CTL=(S(compound)−S(‘LOW’))/(S(‘HIGH’)−S(‘LOW’))*100. Compounds will give values between 100% CTL (no inhibition) and 0% CTL (complete inhibition).
For IC50 value determination, the sample slope in the presence of the test compound after subtraction of the low controls (S(compound)−S(‘LOW’)) are used.
An IC50 value is derived from the compound slopes at different dosages after subtraction of the low controls (S(compound)−S(‘LOW’)) by non-linear regression curve fitting (equation y=(A+((B−A)/(1+((C/x)^D))))).
In the following table the activity expressed as IC50 (μM) of compounds according to the invention is presented wherein the IC50 values are determined in the ACC2 assay as described hereinbefore. The term “Ex.” refers to the example numbers according to the following experimental section.

Sequence of human ACC2 (O00763 129-2458): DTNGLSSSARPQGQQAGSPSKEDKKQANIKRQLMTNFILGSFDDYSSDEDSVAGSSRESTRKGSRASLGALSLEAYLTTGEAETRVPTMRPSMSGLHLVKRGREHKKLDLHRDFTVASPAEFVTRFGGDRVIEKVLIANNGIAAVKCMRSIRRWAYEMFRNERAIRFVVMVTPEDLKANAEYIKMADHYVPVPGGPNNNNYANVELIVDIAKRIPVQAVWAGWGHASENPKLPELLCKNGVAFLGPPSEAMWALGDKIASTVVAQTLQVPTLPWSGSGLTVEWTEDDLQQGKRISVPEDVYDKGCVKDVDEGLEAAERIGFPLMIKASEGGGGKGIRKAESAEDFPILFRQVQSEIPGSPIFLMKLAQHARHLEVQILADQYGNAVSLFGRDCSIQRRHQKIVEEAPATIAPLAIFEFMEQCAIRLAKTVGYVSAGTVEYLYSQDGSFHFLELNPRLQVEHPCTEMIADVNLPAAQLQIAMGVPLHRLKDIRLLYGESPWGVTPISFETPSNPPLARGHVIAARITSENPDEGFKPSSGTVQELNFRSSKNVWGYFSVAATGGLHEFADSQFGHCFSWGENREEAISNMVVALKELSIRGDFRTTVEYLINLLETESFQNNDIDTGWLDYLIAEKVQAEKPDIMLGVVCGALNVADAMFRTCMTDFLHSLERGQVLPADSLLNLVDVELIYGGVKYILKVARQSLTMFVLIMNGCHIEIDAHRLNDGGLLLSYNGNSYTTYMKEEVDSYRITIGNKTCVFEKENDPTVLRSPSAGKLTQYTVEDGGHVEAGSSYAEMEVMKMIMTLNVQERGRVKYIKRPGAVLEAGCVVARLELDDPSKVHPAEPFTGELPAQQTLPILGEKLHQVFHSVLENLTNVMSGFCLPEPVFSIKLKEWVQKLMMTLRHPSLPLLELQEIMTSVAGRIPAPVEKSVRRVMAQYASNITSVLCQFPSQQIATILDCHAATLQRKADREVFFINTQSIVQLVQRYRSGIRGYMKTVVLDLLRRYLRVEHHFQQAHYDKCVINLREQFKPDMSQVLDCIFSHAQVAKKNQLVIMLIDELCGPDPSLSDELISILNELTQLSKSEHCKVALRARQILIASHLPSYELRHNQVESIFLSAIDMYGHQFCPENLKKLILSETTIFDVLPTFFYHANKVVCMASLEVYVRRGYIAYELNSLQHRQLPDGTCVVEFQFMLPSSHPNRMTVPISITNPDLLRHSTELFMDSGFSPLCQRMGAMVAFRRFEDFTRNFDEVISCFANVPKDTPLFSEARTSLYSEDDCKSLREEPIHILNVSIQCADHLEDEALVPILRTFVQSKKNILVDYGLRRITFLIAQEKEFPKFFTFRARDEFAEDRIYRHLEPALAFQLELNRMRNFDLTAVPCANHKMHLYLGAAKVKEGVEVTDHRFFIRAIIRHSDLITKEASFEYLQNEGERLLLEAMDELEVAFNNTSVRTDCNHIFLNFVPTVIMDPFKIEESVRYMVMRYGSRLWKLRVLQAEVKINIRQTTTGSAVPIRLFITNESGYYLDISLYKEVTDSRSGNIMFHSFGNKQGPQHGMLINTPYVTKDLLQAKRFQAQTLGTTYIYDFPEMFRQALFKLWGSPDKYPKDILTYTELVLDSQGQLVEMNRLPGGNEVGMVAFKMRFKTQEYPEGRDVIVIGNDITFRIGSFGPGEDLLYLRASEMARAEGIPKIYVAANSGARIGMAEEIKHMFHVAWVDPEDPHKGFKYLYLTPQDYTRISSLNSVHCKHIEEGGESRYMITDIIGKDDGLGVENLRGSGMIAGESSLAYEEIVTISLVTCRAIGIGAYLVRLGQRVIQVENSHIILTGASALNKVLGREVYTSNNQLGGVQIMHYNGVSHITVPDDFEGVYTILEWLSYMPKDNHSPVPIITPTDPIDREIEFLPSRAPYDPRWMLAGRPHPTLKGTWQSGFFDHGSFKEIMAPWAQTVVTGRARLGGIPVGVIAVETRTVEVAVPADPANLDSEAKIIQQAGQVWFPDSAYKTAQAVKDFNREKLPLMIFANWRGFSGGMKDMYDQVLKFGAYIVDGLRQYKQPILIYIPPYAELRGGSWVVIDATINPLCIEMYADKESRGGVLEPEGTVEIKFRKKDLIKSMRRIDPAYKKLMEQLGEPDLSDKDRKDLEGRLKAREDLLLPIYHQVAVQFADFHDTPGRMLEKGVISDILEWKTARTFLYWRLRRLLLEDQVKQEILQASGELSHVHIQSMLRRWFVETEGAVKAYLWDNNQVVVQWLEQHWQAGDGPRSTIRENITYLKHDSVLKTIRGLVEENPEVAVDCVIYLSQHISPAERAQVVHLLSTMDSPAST

Row | SMILES | IC50
1 | C[C@H](NC(=O)c1ccon1)c1ccc(C2CN(c3ccc4c(c3)OCCO4)C2)cc1 [Example 3.73] | 2490 nM
2 | COCCC(=O)N[C@@H](C)c1ccc(C2CN(c3ccc(OCC4CC4)cc3)C2)cc1 [Example 3.30] | 2060 nM
3 | Cc1oncc1C(=O)N[C@@H](C)c1ccc(C2CN(c3ccc(OCC4CC4)cc3)C2)cc1 [Example 3.01, (S)—N-(1-(4-(1-(4-(cyclopropylmethoxy)phenyl)azetidin-3-yl)phenyl)ethyl)-5-methylisoxazole-4-carboxamide] | 330 nM
4 | COCC(=O)N[C@@H](C)c1ccc(C2CN(c3ccc(OCC4CC4)cc3)C2)cc1 [Example 3.50] | 2170 nM
5 | CCCC(=O)NC(C)Cc1ccc(C2CN(c3ccc(OCC4CC4)cc3)C2)cc1 (stereo not drawn) [Example 3.08] | 3070 nM
6 | CCC(=O)NC(C)Cc1ccc(C2CN(c3ccc(OCC4CC4)cc3)C2)cc1 (stereo not drawn) [Example 3.10] | 890 nM
7 | C#CCCC(=O)N[C@@H](C)c1ccc(C2CN(c3ccc(OCC4CC4)cc3)C2)cc1 [Example 3.53] | 2380 nM
8 | CC(Cc1ccc(C2CN(c3ccc4c(c3)OCCO4)C2)cc1)NC(=O)C(F)F (stereo not drawn) [Example 3.84] | 3600 nM
9 | CC(C#N)C(=O)N[C@@H](C)c1ccc(C2CN(c3ccc(OCC4CC4)cc3)C2)cc1 (stereo partly drawn) [Example 3.28] | 1210 nM
10 | CC(=O)N[C@@H](C)c1ccc(C2CN(c3ccc4c(c3)OCCO4)C2)cc1 [Example 1.27] | 170 nM
11 | CC(=O)NC(C)Cc1ccc(C2CN(c3ccc4ncccc4c3)C2)cc1 (stereo not drawn) [Example 1.10] | 8100 nM
12 | CC(Cc1ccc(C2CN(c3ccc(OCC4CC4)cc3)C2)cc1)NC(=O)CCC#N (stereo not drawn) [Example 3.18] | 3050 nM
13 | C[C@H](NC(=O)C(C)(C)F)c1ccc(C2CN(c3ccc(OCC4CC4)cc3)C2)cc1 [Example 3.46] | 1150 nM
14 | CCOC(=O)C1(F)CC1C(=O)NC(C)Cc1ccc(C2CN(c3ccc(OCC4CC4)cc3)C2)cc1 (stereo not drawn) [Example 3.79] | 2300 nM
15 | CC(=O)NC(C)c1ccc(C2CN(c3ccc4c(c3)OCCO4)C2)cc1 (stereo not drawn) [Example 1.20] | 490 nM
16 | C[C@H](NC(=O)C1(C)CC1)c1ccc(C2CN(c3ccc(OCC4CC4)cc3)C2)cc1 [Example 3.26] | 2420 nM
17 | C[C@H](NC(=O)C1CC=CC1)c1ccc(C2CN(c3ccc(OCC4CC4)cc3)C2)cc1 [Example 3.03] | 380 nM
18 | CC(=O)Nc1ncc(C(=O)N[C@@H](C)c2ccc(C3CN(c4ccc(OCC5CC5)cc4)C3)cc2)s1 [Example 3.49] | 1690 nM
19 | CC(=O)NC(C)c1ccc(C2CN(c3ccc(OC4CCCC4)cc3)C2)cc1 (stereo not drawn) [Example 1.21] | 340 nM

Row | SMILES | IC50
20 | C[C@H](NC(=O)C1CC(F)C1)c1ccc(C2CN(c3ccc4c(c3)OCCO4)C2)cc1 (stereo partly drawn) [Example 3.33] | 2870 nM
21 | CC(=O)NC(C)Cc1ccc(C2CN(c3ccc(OC4CC4)cc3)C2)cc1 (stereo not drawn) [Example 1.03] | 340 nM
22 | C[C@H](NC(=O)CF)c1ccc(C2CN(c3ccc(OCC4CC4)cc3)C2)cc1 [Example 3.89] | 550 nM
23 | CCCOc1ncnc(N2CC(c3ccc([C@H](C)NC(C)=O)cc3)C2)c1Cl [Example 5.4] | 680 nM
24 | C[C@H](NC(=O)c1cnn(C)c1)c1ccc(C2CN(c3ccc(OCC4CC4)cc3)C2)cc1 [Example 3.90] | 620 nM
25 | CC(=O)NC(C)CCc1ccc(C2CN(c3cccc(C(F)(F)F)n3)C2)cc1 (stereo not drawn) [Example 2.06] | 1420 nM
26 | C[C@H](NC(=O)c1cncs1)c1ccc(C2CN(c3ccc(OCC4CC4)cc3)C2)cc1 [Example 3.86] | 450 nM
27 | C[C@H](NC(=O)C(C)(C)O)c1ccc(C2CN(c3ccc(OCC4CC4)cc3)C2)cc1 [Example 3.75] | 3080 nM
28 | C[C@H](NC(=O)c1cnn(C)c1)c1ccc(C2CN(c3ccc4c(c3)OCCO4)C2)cc1 [Example 3.71] | 1690 nM
29 | CC(=O)Nc1cc(C(=O)N[C@@H](C)c2ccc(C3CN(c4ccc(OCC5CC5)cc4)C3)cc2)ccn1 [Example 3.59] | 780 nM
30 | CC(=O)NC(C)Cc1ccc(C2CN(c3ncc(OCC4CC4(F)F)cc3F)C2)cc1 (stereo not drawn) [Example 1.30] | 740 nM
31 | C[C@H](NC(=O)C1CNC(=O)C1)c1ccc(C2CN(c3ccc(OCC4CC4)cc3)C2)cc1 (stereo partly drawn) [Example 3.34] | 2730 nM
32 | C[C@H](NC(=O)C1CC1)c1ccc(C2CN(c3ccc(OCC4CC4)cc3)C2)cc1 [Example 3.56] | 700 nM
33 | Cc1ccc(C(=O)N[C@@H](C)c2ccc(C3CN(c4ccc(OCC5CC5)cc4)C3)cc2)o1 [Example 3.43] | 2570 nM
34 | C[C@H](NC(=O)Cc1cccnc1)c1ccc(C2CN(c3ccc(OCC4CC4)cc3)C2)cc1 [Example 3.24] | 1670 nM
35 | CC(=O)N[C@@H](C)c1ccc(C2CN(c3ccc(OCCCF)cn3)C2)cc1 [Example 1.34] | 830 nM
36 | C[C@H](NC(=O)C(F)F)c1ccc(C2CN(c3ccc(OCC4CC4)cc3)C2)cc1 [Example 3.85] | 360 nM
37 | C[C@H](NC(=O)C1CCOC1)c1ccc(C2CN(c3ccc(OCC4CC4)cc3)C2)cc1 (stereo partly drawn) [Example 3.20] | 1020 nM
38 | CC(=O)N[C@@H](C)c1ccc(C2CN(c3nc(N(C)C)ncc3F)C2)cc1 [Example 4.3] | 1510 nM

Further lines, results first:

Row | IC50 | SMILES
39 | 1170 nM | Cc1cc(CC(=O)N[C@@H](C)c2ccc(C3CN(c4ccc(OCC5CC5)cc4)C3)cc2)on1 [Example 3.60]
40 | 3130 nM | CCC(=O)NC(C)Cc1ccc(C2CN(c3ccc4c(c3)OCCO4)C2)cc1 (stereo not drawn) [Example 3.83]
41 | 1180 nM | Cc1nocc1C(=O)N[C@@H](C)c1ccc(C2CN(c3ccc4c(c3)OCCO4)C2)cc1 [Example 3.65]
42 | 2460 nM | C[C@H](NC(=O)C1CC1)c1ccc(C2CN(c3ccc4c(c3)OCCO4)C2)cc1 [Example 3.64]
43 | 8560 nM | CC(=O)NC(C)Cc1ccc(C2CN(c3ncc(Br)cn3)C2)cc1 (stereo not drawn) [Example 2.01, N-(1-(4-(1-(5-bromopyrimidin-2-yl)azetidin-3-yl)phenyl)propan-2-yl)acetamide]
44 | 1450 nM | CC(Cc1ccc(C2CN(c3ccc(OCC4CC4)cc3)C2)cc1)NC(=O)C(C)(F)F (stereo not drawn) [Example 3.11]
45 | 900 nM | CCCOc1ccc(N2CC(c3ccc(CC(C)NC(C)=O)cc3)C2)cn1 (stereo not drawn) [Example 1.05]
46 | 260 nM | CC(=O)NC(C)Cc1ccc(C2CN(c3ccc(OC4CCC4)cc3)C2)cc1 (stereo not drawn) [Example 1.02]
47 | 810 nM | CC(=O)NC(C)CCc1ccc(C2CN(c3ncc4nc(-c5ccccc5)oc4n3)C2)cc1 (stereo not drawn) [Example 2.05]
48 | 690 nM | CC(=O)N[C@@H](C)c1ccc(C2CN(c3ncc4nc(-c5ccsc5)oc4n3)C2)cc1 [Example 2.13]
49 | 1070 nM | C=CCC(=O)NC(C)Cc1ccc(C2CN(c3ccc(OCC4CC4)cc3)C2)cc1 (stereo not drawn) [Example 3.06]
50 | 1820 nM | CC(=O)N[C@@H](C)c1ccc(C2CN(c3ccnc(N(C)CC(F)F)n3)C2)cc1 [Example 4.1, (S)—N-(1-(4-(1-(2-((2,2-difluoroethyl)(methyl)amino)pyrimidin-4-yl)azetidin-3-yl)phenyl)ethyl)acetamide]
51 | 1700 nM | CC(Cc1ccc(C2CN(c3ccc(OCC4CC4)cc3)C2)cc1)NC(=O)c1ccon1 (stereo not drawn) [Example 3.77]
52 | 1130 nM | C[C@H](NC(=O)c1cnco1)c1ccc(C2CN(c3ccc4c(c3)OCCO4)C2)cc1 [Example 3.44]
53 | 1630 nM | CC(=O)N[C@@H](C)c1ccc(C2CN(c3ccc(OC4CCC4)cc3)C2)cc1 [Example 1.24]
54 | 540 nM | CC(=O)N[C@@H](C)c1ccc(C2CN(c3ncnc(OCC4CC4(F)F)c3F)C2)cc1 (stereo partly drawn) [Example 5.6]
55 | 2560 nM | CC(=O)NC(C)CCc1ccc(C2CN(c3ncc(C4CC4)cn3)C2)cc1 (stereo not drawn) [Example 2.04]
56 | 9040 nM | CC(=O)N[C@@H](C)c1ccc(C2CN(c3ccnc(N4CCOCC4)n3)C2)cc1 [Example 1.32]
57 | 2510 nM | CC(Cc1ccc(C2CN(c3ccc(OCC4CC4)cc3)C2)cc1)NC(=O)C(C)F (stereo not drawn) [Example 3.09]
58 | 510 nM | CCCOc1ccc(N2CC(c3ccc([C@H](C)NC(C)=O)cc3)C2)cc1 [Example 1.26]
59 | 1060 nM | C[C@H](NC(=O)c1cn[nH]c1)c1ccc(C2CN(c3ccc(OCC4CC4)cc3)C2)cc1 [Example 3.02]
60 | 2730 nM | CC(=O)NC(C)Cc1ccc(C2CN(c3ccc(C(C)(C)C)cc3)C2)cc1 (stereo not drawn) [Example 1.09]
61 | 600 nM | CC(=O)N[C@@H](C)c1ccc(C2CN(c3ccc(OCC4CC4(F)F)cn3)C2)cc1 (stereo partly drawn) [Example 1.31]
62 | 380 nM | CC(=O)N[C@@H](C)c1ccc(C2CN(c3ccc(OCC4CC4)cc3)C2)cc1 [Example 1.23]
63 | 650 nM | CCOc1ccc(N2CC(c3ccc(CC(C)NC(C)=O)cc3)C2)cc1 (stereo not drawn) [Example 1.08]
